Common to all, as to assay: relative viability (nuclei count vs DMSO), 5 days (fraction); higher = more cells survive
Compound in test [1]: C1CC(C1)(C(=O)O)C(=O)O.[NH2-].[NH2-].[Pt+2] [Carboplatin] + CC(=O)Nc1cccc(-n2c(=O)n(C3CC3)c(=O)c3c(Nc4ccc(I)cc4F)n(C)c(=O)c(C)c32)c1 [Trametinib] (partner 0.02 µM)
The procedure, abridged: (§1)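 Values are medians from duplicate plates. Each reflects relative viability, defined as the nuclei count of treated wells over that of vehicle wells. Lung cancer cell lines in 1536-well plates were pin-tool dosed one day after seeding with one drug alone or with a fixed anchor-drug dose plus five library-drug doses (not always all listed) in √10 steps, then fixed, stained and imaged at 4× after 5 days.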

Compound in test [2]: C1CC(C1)(C(=O)O)C(=O)O.[NH2-].[NH2-].[Pt+2] [Carboplatin] + CS(=O)(=O)N1CCN(Cc2cc3nc(-c4cccc5[nH]ncc45)nc(N4CCOCC4)c3s2)CC1 [Pictilisib] (partner 1 µM)
Put shortly:
as §1

Compound in test [3]: CC[C@H](C)N1C=C(C2=C(C=C(C=C21)C3=CN=C(C=C3)N4CCNCC4)C(=O)NCC5=C(C=C(NC5=O)C)C)C [GSK126] + Cc1nc(NC(=O)N2CCC[C@H]2C(N)=O)sc1-c1ccnc(C(C)(C)C(F)(F)F)c1 [Alpelisib] (partner 2 µM)
The procedure, abridged:
as §1

Compound in test [4]: NS(=O)(=O)OC[C@@H]1C[C@@H](n2ccc3c(N[C@H]4CCc5ccccc54)ncnc32)C[C@@H]1O [MLN4924] + N=C(N)NC(=N)NCCc1ccccc1 [Phenformin] (partner 250 µM)
Put shortly: as §1

Consider PC-14, for which the relative viability in test [1] (first compound 0.08 µM) worked out at 0.785; in test [1] (first compound 0.253 µM), 0.751; in test [1] (first compound 0.8 µM) it was 0.692; in test [1] (first compound 2.53 µM), 0.407; in test [1] (first compound 8 µM), 0.14; in test [2] (first compound 0.08 µM) it was 0.815. The relative viability in test [2] (first compound 0.253 µM) is 0.744; in test [2] (first compound 0.8 µM), 0.62; in test [2] (first compound 2.53 µM) it was 0.698; in test [2] (first compound 8 µM), 0.349; in test [3] (first compound 0.08 µM), 0.946; in test [3] (first compound 0.253 µM) it was 0.993. Also, the relative viability in test [3] (first compound 0.8 µM) was found to be 0.899; in test [3] (first compound 2.53 µM), 0.826; in test [3] (first compound 8 µM), 0.852; in test [4] (first compound 0.04 µM), 0.473; in test [4] (first compound 0.1265 µM) it was 0.564; in test [4] (first compound 0.4 µM) it was 0.37. Besides, the relative viability came to 0.151 in test [4] (first compound 1.265 µM) and 0.127 in test [4] (first compound 4 µM).

Consider RERF-LC-KJ, for which the relative viability in test [1] (first compound 0.08 µM) is 0.863; in test [1] (first compound 0.253 µM), 0.876; in test [1] (first compound 0.8 µM), 0.785; in test [1] (first compound 2.53 µM) it was 0.696; in test [1] (first compound 8 µM), 0.53; in test [2] (first compound 0.08 µM), 0.584. Further, the relative viability in test [2] (first compound 0.253 µM) turned out to be 0.48; in test [2] (first compound 0.8 µM), 0.512; in test [2] (first compound 2.53 µM), 0.453; in test [2] (first compound 8 µM), 0.316; in test [3] (first compound 0.08 µM), 0.881; in test [3] (first compound 0.253 µM) it was 0.803. Further, the relative viability was 0.697 in test [3] (first compound 0.8 µM); 0.845 in test [3] (first compound 2.53 µM); 0.734 in test [3] (first compound 8 µM); 0.397 in test [4] (first compound 0.04 µM); 0.351 in test [4] (first compound 0.1265 µM); 0.204 in test [4] (first compound 0.4 µM). In addition, the results for the relative viability in test [4] (first compound 1.265 µM) and in test [4] (first compound 4 µM) were 0.255 and 0.249, respectively.

Regarding SK-LU-1, the relative viability turned out to be 0.584 in test [1] (first compound 0.08 µM); 0.525 in test [1] (first compound 0.253 µM); 0.485 in test [1] (first compound 0.8 µM); 0.441 in test [1] (first compound 2.53 µM); 0.356 in test [1] (first compound 8 µM); 0.542 in test [2] (first compound 0.08 µM). In addition, the relative viability in test [2] (first compound 0.253 µM) is 0.664; in test [2] (first compound 0.8 µM), 0.528; in test [2] (first compound 2.53 µM) it was 0.542; in test [2] (first compound 8 µM), 0.411; in test [3] (first compound 0.08 µM) it was 1.01; in test [3] (first compound 0.253 µM) it was 1.11. Moreover, the relative viability in test [3] (first compound 0.8 µM) stood at 1.2; in test [3] (first compound 2.53 µM), 1.18; in test [3] (first compound 8 µM) it was 1.03; in test [4] (first compound 0.04 µM) it was 0.514; in test [4] (first compound 0.1265 µM), 0.558; in test [4] (first compound 0.4 µM), 0.22. The relative viability in test [4] (first compound 1.265 µM) stood at 0.0997; in test [4] (first compound 4 µM), 0.131.

On to SK-MES-1, for which the relative viability in test [1] (first compound 0.08 µM) was 0.645; in test [1] (first compound 0.253 µM), 0.469; in test [1] (first compound 0.8 µM), 0.524; in test [1] (first compound 2.53 µM), 0.556; in test [1] (first compound 8 µM), 0.565; in test [2] (first compound 0.08 µM), 0.402. The relative viability was 0.272 in test [2] (first compound 0.253 µM); 0.358 in test [2] (first compound 0.8 µM); 0.328 in test [2] (first compound 2.53 µM); 0.303 in test [2] (first compound 8 µM); 0.901 in test [3] (first compound 0.08 µM); 0.878 in test [3] (first compound 0.253 µM). Also, the relative viability in test [3] (first compound 0.8 µM) was 0.92; in test [3] (first compound 2.53 µM), 0.868; in test [3] (first compound 8 µM), 0.996; in test [4] (first compound 0.04 µM), 0.555; in test [4] (first compound 0.1265 µM), 0.444; in test [4] (first compound 0.4 µM) it was 0.309. The relative viability in test [4] (first compound 1.265 µM) turned out to be 0.202; in test [4] (first compound 4 µM), 0.2.

As for SW 1573, the relative viability in test [1] (first compound 0.08 µM) worked out at 0.677; in test [1] (first compound 0.253 µM), 0.539; in test [1] (first compound 0.8 µM), 0.528; in test [1] (first compound 2.53 µM), 0.555; in test [1] (first compound 8 µM), 0.387; in test [2] (first compound 0.08 µM) it was 0.408. In addition, the relative viability was found to be 0.603 in test [2] (first compound 0.253 µM); 0.492 in test [2] (first compound 0.8 µM); 0.555 in test [2] (first compound 2.53 µM); 0.399 in test [2] (first compound 8 µM); 0.725 in test [3] (first compound 0.08 µM); 0.811 in test [3] (first compound 0.253 µM). In addition, the relative viability in test [3] (first compound 0.8 µM) came to 0.819; in test [3] (first compound 2.53 µM) it was 0.773; in test [3] (first compound 8 µM) it was 0.786; in test [4] (first compound 0.04 µM), 0.325; in test [4] (first compound 0.1265 µM), 0.297; in test [4] (first compound 0.4 µM), 0.144. The results for the relative viability in test [4] (first compound 1.265 µM) and in test [4] (first compound 4 µM) were 0.086 and 0.0734, respectively.

The record behind these values is the supplement of paper PMC10307832.
